According to PMC3148428 (2011):

Target: T1, ABCG2 (Rattus norvegicus, UniProt Q80W57)
T1 sequence (Q80W57 1-657): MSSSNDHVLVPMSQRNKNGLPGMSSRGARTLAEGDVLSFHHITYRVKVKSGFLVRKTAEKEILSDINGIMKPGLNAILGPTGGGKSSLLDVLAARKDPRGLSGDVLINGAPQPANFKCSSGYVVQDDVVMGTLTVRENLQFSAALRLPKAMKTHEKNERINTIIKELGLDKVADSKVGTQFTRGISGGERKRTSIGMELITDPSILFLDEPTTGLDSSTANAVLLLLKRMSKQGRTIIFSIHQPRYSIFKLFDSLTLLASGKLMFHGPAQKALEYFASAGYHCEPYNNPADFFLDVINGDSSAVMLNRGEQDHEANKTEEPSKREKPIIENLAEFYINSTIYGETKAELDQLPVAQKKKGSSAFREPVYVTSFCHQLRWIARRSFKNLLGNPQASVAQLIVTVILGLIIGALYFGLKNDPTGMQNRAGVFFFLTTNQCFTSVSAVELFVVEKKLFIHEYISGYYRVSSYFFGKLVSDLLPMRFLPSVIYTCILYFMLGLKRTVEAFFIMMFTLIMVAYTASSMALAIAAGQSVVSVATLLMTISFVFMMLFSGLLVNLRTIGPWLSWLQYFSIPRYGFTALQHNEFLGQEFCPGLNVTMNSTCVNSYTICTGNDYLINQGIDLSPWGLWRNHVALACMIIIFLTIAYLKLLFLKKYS

An IC50 of 93.2 nM was found for `Cc1cn(-c2cc(NC(=O)c3ccc(C)c(Nc4nccc(-c5cccnc5)n4)c3)cc(C(F)(F)F)c2)cn1` [Tasigna] in this work.
